According to US5698538A, “Boronic acid and ester inhibitors of thrombin” (The DuPont Merck Pharmaceutical Company, priority 1996, dated 1997):
Structures can show the parent of a compound that is named as a salt. Where two headings read alike, the source gives them in different places.

Experiments:
Assay type in all cases: biochemical
human factor VIIa = target: T1, human factor VIIa (Homo sapiens, UniProt P08709); assay: Inhibition of human factor VIIa (chromogenic substrate S2288), inhibitory constant Ki
T1 construct: Factor VIIa in the extrinsic pathway; purchased BiosPacific, Emeryville, Calif
T1 sequence (P08709 213-466 limits assumed): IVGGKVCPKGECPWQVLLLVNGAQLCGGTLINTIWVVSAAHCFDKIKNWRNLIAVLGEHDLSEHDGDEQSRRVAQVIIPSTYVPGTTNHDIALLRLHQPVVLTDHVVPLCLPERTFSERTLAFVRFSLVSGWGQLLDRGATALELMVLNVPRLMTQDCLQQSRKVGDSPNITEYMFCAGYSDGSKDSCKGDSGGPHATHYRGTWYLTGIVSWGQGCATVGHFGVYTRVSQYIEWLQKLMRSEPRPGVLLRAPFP
T1 sequence (P08709 61-212 partner limits assumed): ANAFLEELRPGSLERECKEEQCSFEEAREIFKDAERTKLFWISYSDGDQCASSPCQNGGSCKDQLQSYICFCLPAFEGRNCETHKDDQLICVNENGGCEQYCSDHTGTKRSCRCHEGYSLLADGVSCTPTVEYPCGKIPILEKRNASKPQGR
Description: (§1) The effectiveness of compounds of the present invention as inhibitors of blood coagulation proteases was determined using purified human proteases and synthetic substrates following procedures similar to those described in Kettner et al. (1990).
(§2) For these assays, the rate of enzymatic (thrombin, Factor Xa, and Factor VIIa) hydrolysis of chromogenic substrates (S2238 (H-D-Phe-Pip-Arg-pNA), S2222, and S2288, respectively; Kabi Pharmacia, Franklin, Ohio.) was measured both in the absence and presence of compounds of the present invention. […] A decrease in the rate of absorbance change at 405 nm in the presence of inhibitor is indicative of enzyme inhibition. The results of this assay are expressed as inhibitory constant, Ki.
(§3) Thrombin and Xa determinations were made in 0.10M sodium phosphate buffer, pH 7.5, containing 0.20M NaCl, and 0.5% PEG 8000. VIIa determinations were made in 0.05M tris buffer, pH 7.6, containing 0.10M NaCl, 4 mM CaCl2, and 0.1% bovine serum albumin. The Michaelis constant, Km, for substrate hydrolysis was determined at 5° C. using the method of Lineweaver and Burk.
(§4) Values of Ki were determined by allowing 0.2-0.5 nM human thrombin or human factor Xa (Enzyme Research Laboratories, South Bend, Ind.), or 50 nM human factor VIIa (BiosPacific, Emeryville, Calif.) react with the substrate (0.20 mM-1 mM) in the presence of inhibitor. Reactions were allowed to go for 30 minutes and the velocities (rate of absorbance change vs time) were measured in the time frame of 25-30 minutes. The following relationship was used to calculate Ki values. [formula] where: vo is the velocity of the control in the absence of inhibitor;
(§5) vs is the velocity in the presence of inhibitor;
(§6) I is the concentration of inhibitor;
(§7) Ki is the dissociation constant of the enzyme: inhibitor complex;
(§8) S is the concentration of substrate;
(§9) Km is the Michaelis constant.

human factor Xa = target: T2, human factor Xa (Homo sapiens, UniProt P00742); assay: Inhibition of human factor Xa (chromogenic substrate S2222), inhibitory constant Ki; conditions: S2222, pH 7.5, 30 minutes, read-out: Ki values for inhibition of Serine Proteases: Factor Xa
T2 construct: purchased Enzyme Research Laboratories, South Bend, Ind
T2 sequence (P00742 235-488 limits assumed): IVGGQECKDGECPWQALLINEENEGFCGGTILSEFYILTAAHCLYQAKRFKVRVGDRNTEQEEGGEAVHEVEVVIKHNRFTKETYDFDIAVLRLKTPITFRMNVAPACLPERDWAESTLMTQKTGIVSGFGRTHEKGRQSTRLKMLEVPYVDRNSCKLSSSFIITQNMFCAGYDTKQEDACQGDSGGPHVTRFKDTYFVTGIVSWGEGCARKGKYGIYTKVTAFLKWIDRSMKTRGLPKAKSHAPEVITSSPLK
T2 sequence (P00742 41-179 partner limits assumed): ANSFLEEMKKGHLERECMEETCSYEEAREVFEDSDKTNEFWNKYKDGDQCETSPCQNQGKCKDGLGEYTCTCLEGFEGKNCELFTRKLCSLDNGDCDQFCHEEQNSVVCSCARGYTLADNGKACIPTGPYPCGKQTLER
Description: as §1, §2, §3, §4, §5, §6, §7, §8, §9

human thrombin = target: T3, human thrombin (Homo sapiens, UniProt P00734); assay: Inhibition of human thrombin (chromogenic substrate S2238), inhibitory constant Ki; conditions: 0.2-0.5 nM human thrombin, S2238, pH 7.5, 30 minutes; read-out: Ki values for inhibition of Serine Proteases: Thrombin
T3 construct: purchased Enzyme Research Laboratories, South Bend, Ind
Description: as §1, §2, §3, §4, §5, §6, §7, §8, §9

[1] = 50 nM human factor VIIa, S2288, pH 7.6, 4 mM CaCl2, 30 minutes, read-out: Ki values for inhibition of Serine Proteases: Factor VIIa

| Compound | Ki (human factor VIIa; [1]) [nM] | Ki (human factor Xa) [nM] | Ki (human thrombin) [nM] | Ki (human factor VIIa) [nM] |
| --- | --- | --- | --- | --- |
| CC1(C)[C@@H]2C[C@H]3OB([C@H](CCCCN)NC(=O)Cn4nc(CC(=O)O)nc4Cc4ccccc4)O[C@@]3(C)[C@H]1C2 [Example 905] | > 500000 | 500 to 50000 | < 50000 | – |
| CC1(C)[C@@H]2C[C@H]3OB([C@H](CCCCN)NC(=O)c4ccc(-c5ccccc5)nc4)O[C@@]3(C)[C@H]1C2 [Example 468] | 500 to 50000 | 500 to 50000 | < 50000 | – |
| NCCCC[C@H](NC(=O)c1ccc(-c2ccccc2)nc1)B(O)O [Example 474] | 500 to 50000 | 500 to 50000 | < 50000 | – |
| CC(C)(C)NS(=O)(=O)c1ccccc1-c1ccc(C(=O)N[C@@H](CCCNC=N)B2O[C@@H]3C[C@@H]4C[C@@H](C4(C)C)[C@]3(C)O2)cc1 [Example 302] | 500 to 50000 | < 500 | < 500 | – |
| Cc1nc(Cc2ccccc2)n(CC(=O)N[C@@H](CCCCN)B2O[C@@H]3C[C@@H]4C[C@@H](C4(C)C)[C@]3(C)O2)n1 [Example 888] | – | 500 to 50000 | < 500 | 500 to 50000 |
| CC1(C)[C@@H]2C[C@H]3OB([C@H](CCCNC(=N)N)NC(=O)c4ccc(-c5ccccc5)c(N)c4)O[C@@]3(C)[C@H]1C2 [Example 299] | < 500 | < 500 | < 500 | – |
| COCCC[C@H](NC(=O)Cn1nc(CC#N)nc1Cc1ccccc1)B1OC2CC3CC(C3(C)C)C2(C)O1 (single isomer, unassigned) [Example 1352] | – | 500 to 50000 | < 500 | – |
| CC1(C)C2CC3OB([C@H](CCCCN)NC(=O)Cn4cnc(CCc5ccccc5)n4)OC3(C)C1C2 (single isomer, unassigned) [Example 2752] | – | – | < 500 | – |
| NCCCC[C@H](NC(=O)Cn1cnc(CCc2ccccc2)n1)B(O)O [Example 2837] | – | – | < 50000 | – |
| CC(C)(C)OC(=O)Nc1cccc(-c2ccc(C(=O)N[C@@H](CCCNC(=N)N)B3OC4CC5CC(C5(C)C)C4(C)O3)o2)c1 (single isomer, unassigned) [Example 5529] | – | < 500 | < 500 | – |
| NCCCC[C@H](NC(=O)c1ccc(-c2ccccc2)nc1)B(O)O [Example 4065] | – | 500 to 50000 | < 50000 | – |
| CC1(C)C2CC3OB([C@H](CCCCN)NC(=O)Cn4cnc(Cc5ccccc5)n4)OC3(C)C1C2 (single isomer, unassigned) [Example 2411] | – | – | < 500 | – |
| CC1(C)[C@@H]2C[C@H]3OB([C@H](CCCNC(=N)N)NC(=O)c4ccc(-c5ccccc5)cc4)O[C@@]3(C)[C@H]1C2 [Example 1, N^1-(4-Phenylbenzoyl)boroarginine (+)-Pinanediol, Bisulfite] | – | 500 to 50000 | < 500 | – |
| NCCCC[C@H](NC(=O)Cn1ncnc1Cc1ccccc1)B(O)O [Example 977] | – | – | < 500 | – |
| CC1(C)[C@@H]2C[C@H]3OB([C@H](CCCCN)NC(=O)c4ccc(-c5ccccc5)nc4)O[C@@]3(C)[C@H]1C2 [Example 4064] | – | 500 to 50000 | < 50000 | – |
| CC1(C)[C@@H]2C[C@H]3OB([C@H](CCCCN)NC(=O)Cn4ncnc4Cc4ccccc4)O[C@@]3(C)[C@H]1C2 [Example 887] | – | – | < 500 | – |
| CC(C)(C)NS(=O)(=O)c1ccccc1-c1ccc(C(=O)N[C@@H](CCCNC(=N)N)B2O[C@@H]3C[C@@H]4C[C@@H](C4(C)C)[C@]3(C)O2)c([N+](=O)[O-])c1 [Example 288] | < 500 | – | < 500 | – |
| CC1(C)C2CC3OB([C@H](CCCCN)NC(=O)Cn4nc(CCc5ccccc5)nc4CCc4ccccc4)OC3(C)C1C2 (single isomer, unassigned) [Example 1467] | 500 to 50000 | – | < 500 | – |
| Cc1cc(-c2ccccc2)ccc1C(=O)N[C@@H](CCCNC(=N)N)B(O)O [Example 129] | – | < 500 | < 500 | – |
| CC1(C)C2CC3OB([C@H](CCCCN)NC(=O)Cn4ncnc4CCc4ccccc4)OC3(C)C1C2 (single isomer, unassigned) [Example 1431] | – | – | < 500 | – |
| NCCCC[C@H](NC(=O)Cn1ncnc1CCc1ccccc1)B(O)O [Example 1521] | – | – | < 500 | – |
| CC(C)(C)OC(=O)Nc1cccc(-c2ccc(C(=O)N[C@@H](CCCNC(=N)N)B3OC4CC5CC(C5(C)C)C4(C)O3)s2)c1 (single isomer, unassigned) [Example 5426] | – | < 500 | < 500 | – |

Results, then the molecule that gave them:

| Ki (human factor VIIa; [1]) [nM] | Ki (human factor Xa) [nM] | Ki (human thrombin) [nM] | Ki (human factor VIIa) [nM] | Compound |
| --- | --- | --- | --- | --- |
| 500 to 50000 | 500 to 50000 | < 500 | – | CSCc1nc(Cc2ccccc2)n(CC(=O)N[C@@H](CCCCN)B2O[C@@H]3C[C@@H]4C[C@@H](C4(C)C)[C@]3(C)O2)n1 [Example 892] |
| 500 to 50000 | 500 to 50000 | < 500 | – | CC1(C)C2CC3OB([C@H](CCCCN)NC(=O)Cn4nc(Cc5ccccc5)nc4-c4ccccc4)OC3(C)C1C2 (some centres unmarked) [Example 2446] |
| < 500 | 500 to 50000 | < 500 | – | CC1(C)C2CC3OB([C@H](CCCNC(=N)N)NC(=O)Cn4nc(Cc5ccccc5)nc4-c4ccccc4)OC3(C)C1C2 (single isomer, unassigned) [Example 2490] |
| 500 to 50000 | > 500000 | < 500 | – | Cc1nc(-c2ccccc2)ncc1C(=O)N[C@@H](CCCCN)B1O[C@@H]2C[C@@H]3C[C@@H](C3(C)C)[C@]2(C)O1 [Example 3458, R-N^1-((2-phenyl-4-methylpyrimidin-5-yl)carbonyl)borolysine, (+)-pinanediol ester, hydrochloride] |
| 500 to 50000 | 500 to 50000 | < 500 | – | Cc1nc(-c2ccccc2)nn1CC(=O)N[C@@H](CCCCN)B1OC2CC3CC(C3(C)C)C2(C)O1 (single isomer, unassigned) [Example 2074] |
| < 500 | < 500 | < 500 | – | CCN(CC)S(=O)(=O)c1ccccc1-c1ccc(C(=O)N[C@@H](CCCNC(=N)N)B2O[C@@H]3C[C@@H]4C[C@@H](C4(C)C)[C@]3(C)O2)c(C)c1 [Example 286] |
| < 500 | < 500 | < 500 | – | CC(C)(C)NS(=O)(=O)c1ccccc1-c1ccc(C(=O)N[C@@H](CCCNC(=N)N)B(O)O)cc1 [Example 263] |
| 500 to 50000 | – | < 500 | – | NCCCC[C@H](NC(=O)Cn1nc(CCc2ccccc2)nc1CCc1ccccc1)B(O)O [Example 1557] |
| 500 to 50000 | 500 to 50000 | < 500 | – | CC1(C)C2CC3OB([C@H](CCCCN)NC(=O)c4cnc(-c5ccccc5)nc4-c4ccccc4)OC3(C)C1C2 (single isomer, unassigned) [Example 3465] |
| – | 500 to 50000 | < 500 | 500 to 50000 | CC1(C)[C@@H]2C[C@H]3OB([C@H](CCCCN)NC(=O)Cn4nc(-c5cccc([N+](=O)[O-])c5)nc4Cc4ccccc4)O[C@@]3(C)[C@H]1C2 [Example 923] |
| – | – | < 500 | – | Cc1cc(-c2ccccc2)ccc1C(=O)N[C@@H](CCCNC(=N)N)B1O[C@@H]2C[C@@H]3C[C@@H](C3(C)C)[C@]2(C)O1 [Example 29] |
| 500 to 50000 | 500 to 50000 | < 500 | – | COC(=O)Cc1nc(Cc2ccccc2)n(CC(=O)N[C@@H](CCCCN)B2O[C@@H]3C[C@@H]4C[C@@H](C4(C)C)[C@]3(C)O2)n1 [Example 917] |
| – | – | < 500 | – | CC1(C)C2CC3OB([C@H](CCCCN)NC(=O)Cn4nc(Cc5nn[nH]n5)nc4Cc4ccccc4)OC3(C)C1C2 (single isomer, unassigned) [Example 2067] |
| 500 to 50000 | 500 to 50000 | < 500 | – | NCCCC[C@H](NC(=O)Cn1cnc(Cc2ccccc2)n1)B(O)O [Example 2499] |
| – | 500 to 50000 | < 500 | – | CC1(C)C2CC3OB([C@H](CCCCN)NC(=O)Cc4nc(Cc5ccccc5)n(Cc5ccccc5)n4)OC3(C)C1C2 (single isomer, unassigned) [Example 3349] |
| – | – | < 500 | – | CC1(C)[C@@H]2C[C@H]3OB([C@H](CCCCN)NC(=O)Cn4nc(-c5ccccc5)nc4Cc4ccccc4)O[C@@]3(C)[C@H]1C2 [Example 920] |
